Reference: patent publication US20120028995A1, “NOVEL COMPOUNDS FOR MEDICAL USE AS PEPTIDASE EFFECTORS” (IMTM GMBH, priority 2010, published 2012)

What was measured:
[1] = test system: purified, recombinant DP8 and DP9; test: Inhibition of enzymatic activity of DP8/9; format: biochemical; settings: highest test item concentration 25 μM
Method: (§1) The inhibition of the enzymatic activity of DPIV and related enzymes was measured by using purified, recombinant human DPIV (purified from transfected Sf9 cells, final enzyme concentration approx. 1 nM) as well as purified, recombinant DP8 and DP9 (purchased from Biomol). The assay was performed in 0.05M TRIS/HCl puffer pH 7.5, supplemented with 0.05% Triton (v/v), 0.05% BSA (w/v), 2 mM MgCl2.
(§2) The enzymatic activity of DPIV was assessed by the hydrolysis of the fluorogenic substrates H-Gly-Pro-4-amino-7-methyl coumarine (abbreviation of fluorogenic group AMC; purchased from Bachem) or (Ala-Pro)2-Rhodamine 110 (abbreviation R110). The final substrate concentrations were 50 μM or 1 μM, respectively.
(§3) The assay was performed in white microtitre plates for fluorescence measurements. The test items, substrate and enzyme were diluted in assay buffer. The highest test item concentration used was 25 μM. For the calculation of IC50 values, at least 16 log 2-dilutions of each test item were analyzed. As controls, the DPIV activity in the absence of test items as well as the spontaneous hydrolysis of the substrate was determined.
(§4) The release of the fluorescent hydrolysis product AMC was measured at an excitation wavelength of 380 nm and an emission wavelength of 460 nm by using a microtitre fluorescence reader immediately after substrate addition as well as after 30, 60 and 120 min. The hydrolysis of the substrate (Ala-Pro)2-Rhodamine 110 was determined at an exitation wavelength of 488 nm and emission wavelength of 530 nm.

T lymphocytes (T cells) = test: Suppression of DNA synthesis of PHA-stimulated T lymphocytes; format: cell-based; settings: Homo sapiens, T-cell, 48 h, tritium thymidine incorporation, read-out: Supp. DNA Synt. T-cell IC50
Method: Peripheral blood mononuclear cells (PBMC) from healthy human volunteers were freshly isolated by density gradient centrifugation. T lymphocytes (T cells) were isolated from PBMC fractions via nylon wool adherence. Both cell populations were cultured in serum free lymphocyte medium (AIMV medium, Invitrogen) and stimulated by addition of 1 μg/ml Phytohemagglutinine for 48 hours in 96 well flat-bottom microtiter plates. Test compounds were added at concentration ranges from 0.1 up to 250 μM over the total assay period.
DNA synthesis of proliferating PBMC was assessed by incorporation of nucleotide analogue bromdesoxyuridine (BrdU) and subsequent detection of BrdU by ELISA technique (Cell Proliferation Biotrak™ ELISA system, GE Health Care) according to the protocol of the manufacturer. DNA synthesis of proliferating T cells was determined by incorporation of radio labelled tritium thymidine and subsequent radio detection.
Data output was based on raw data and calculation of relative proliferation response in relation to PHA-activated T cells in the absence of test compound (100% control). The IC50 value of proliferation suppression was assessed by graphical evaluation.

[2] = biological target: T1, aminopeptidase N (APN), purified recombinant human enzyme (Homo sapiens, UniProt P15144); test: Inhibition of enzymatic activity of aminopeptidase N (fluorogenic substrate hydrolysis); format: biochemical; settings: highest test item concentration 25 μM; for IC50: read-out: meas. IC50 (APN)
T1 construct: made in house; host or cells: ECV cells (transfected)
Method: The inhibition of the enzymatic activity of aminopeptidase N (APN) was measured by using purified, recombinant human enzyme (purified from transfected ECV cells, final enzyme concentration approx. 1 nM). […] The assay was performed in 0.05M TRIS/HCl puffer pH 7.5, supplemented with 0.05% Triton (v/v), 0.05% BSA (w/v), 2 mM MgCl2.
The aminopeptidase acitivities wer assessed by the hydrolysis of the fluorogenic substrates H-Ala-4-amino-7-methyl coumarine (abbreviation of fluorogenic group AMC; purchased from Bachem) or (Ala-)2-Rhodamine 110 (abbreviation R110). The final substrate concentrations were again 50 and 1 μM, respectively.
as §3
The release of the fluorescent hydrolysis products AMC and R110 was measured as described above for DPIV substrates.

NHEK cells = test: Inhibition of DNA synthesis and proliferation of normal human epidermal keratinocytes (NHEK); format: cell-based; settings: Homo sapiens, NHEK, 48 h, EGF-stimulated NHEK, BrdU incorporation, read-out: Supp. DNA Synt. NHEK IC50
Method: NHEK cells (primary cells from person) were purchased from PromoCell. For these assay the adherent cells were cultured in serum-free Keratinocyte Growth medium 2 supplemented with epidermal growth factor (EGF) and bovine pituitary extract for 48 hours in flat-bottom microtiter plates. EGF stimulates the DNA synthesis and proliferation of these cells. Test items were added in concentrations from 0.1 up to 100 μM.
The DNA synthesis was assessed by incorporation of bromdesoxyuridine (BrdU) and subsequent detection of BrdU by ELISA technique. Based on these raw data the relative proliferation response in relation to cells cultured in the absence of test compound (100% control) was calculated. IC50 values of proliferation suppression were assessed by computer-assisted graphical evaluation.

[3] = biological target: T2, purified, recombinant human DPIV (Homo sapiens, UniProt P27487); test: Inhibition of enzymatic activity of DPIV (fluorogenic substrate hydrolysis); format: biochemical; settings: highest test item concentration 25 μM; for IC50: read-out: meas. IC50 (DPIV)
T2 construct: made in house; host or cells: Sf9 insect cells
Method: as §1, §2, §3, §4

[4] = biological target: T3, cytosolic aminopeptidase (cAAP) purified from Jurkat cells (Homo sapiens, UniProt P55786); test: Inhibition of enzymatic activity of cytosolic aminopeptidase (cAAP); format: biochemical; settings: highest test item concentration 25 μM; for IC50: read-out: meas. IC50 (cAAP)
T3 construct: The cytosolic aminopeptidase (cAAP) was purified from Jurkat cells; endogenous in cells; host or cells: Jurkat cells (enzyme purified from them)

SZ95 cells = test: Inhibition of DNA synthesis and proliferation of immortalized human sebocytes SZ95; format: cell-based; settings: Homo sapiens, EGF-stimulated SZ95 sebocytes, tritium thymidine incorporation; read-out: Supp. DNA Synt. SZ95 IC50
Method: The immortalized human sebocyte line SZ95 was provided by Prof. C Zouboulis [C C Zouboulis, H Seltmann, H Neitzel, C E Orfanos, Establishment and characterization of an immortalized human sebaceous gland cell line (SZ95). J. Invest. Dermatol. 113(6):1011-1020 (1999), the entire disclosure of which is incorporated by reference herein]. These adherent growing cells were cultured in serum-free Sebomed Complete (Biochrom). Recombinant EGF was added in order to stimulate DNA synthesis and proliferation of the SZ95 cells. Test items were added in concentrations from 0.1 up to 100 μM.
The DNA synthesis of proliferating cells was detected by incorporation of radiolabelled tritium thymidine (3HT) and counting at a beta counter. Based on these raw data the relative proliferation response in relation to cells cultured in the absence of test compound (100% control) was calculated. IC50 values of proliferation suppression were assessed by computer-assisted graphical evaluation.

T1 sequence (P15144 whole entry): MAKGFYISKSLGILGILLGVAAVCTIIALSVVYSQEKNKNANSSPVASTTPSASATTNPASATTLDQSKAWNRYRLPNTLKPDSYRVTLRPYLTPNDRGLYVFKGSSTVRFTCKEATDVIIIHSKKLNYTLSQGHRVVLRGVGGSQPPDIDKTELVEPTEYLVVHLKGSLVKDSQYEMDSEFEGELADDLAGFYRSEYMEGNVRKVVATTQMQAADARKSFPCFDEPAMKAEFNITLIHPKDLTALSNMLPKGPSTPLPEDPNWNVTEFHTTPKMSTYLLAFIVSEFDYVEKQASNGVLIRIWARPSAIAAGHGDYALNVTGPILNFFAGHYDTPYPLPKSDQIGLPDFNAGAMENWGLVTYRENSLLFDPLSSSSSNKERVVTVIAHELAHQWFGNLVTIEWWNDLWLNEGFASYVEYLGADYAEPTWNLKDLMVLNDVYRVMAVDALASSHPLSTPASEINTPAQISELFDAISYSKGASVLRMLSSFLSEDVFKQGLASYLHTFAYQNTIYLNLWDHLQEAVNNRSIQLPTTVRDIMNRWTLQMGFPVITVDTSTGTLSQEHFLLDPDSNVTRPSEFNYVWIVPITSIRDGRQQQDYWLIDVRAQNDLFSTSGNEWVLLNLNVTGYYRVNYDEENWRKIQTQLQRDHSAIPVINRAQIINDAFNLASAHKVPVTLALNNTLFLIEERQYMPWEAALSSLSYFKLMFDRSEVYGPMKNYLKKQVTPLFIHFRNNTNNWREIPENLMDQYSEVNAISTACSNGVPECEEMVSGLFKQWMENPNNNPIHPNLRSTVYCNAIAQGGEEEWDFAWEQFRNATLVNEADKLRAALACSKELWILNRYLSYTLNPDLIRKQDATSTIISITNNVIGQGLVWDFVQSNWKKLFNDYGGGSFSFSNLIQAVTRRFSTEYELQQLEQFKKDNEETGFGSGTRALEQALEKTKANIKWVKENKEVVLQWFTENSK
T2 sequence (P27487 whole entry): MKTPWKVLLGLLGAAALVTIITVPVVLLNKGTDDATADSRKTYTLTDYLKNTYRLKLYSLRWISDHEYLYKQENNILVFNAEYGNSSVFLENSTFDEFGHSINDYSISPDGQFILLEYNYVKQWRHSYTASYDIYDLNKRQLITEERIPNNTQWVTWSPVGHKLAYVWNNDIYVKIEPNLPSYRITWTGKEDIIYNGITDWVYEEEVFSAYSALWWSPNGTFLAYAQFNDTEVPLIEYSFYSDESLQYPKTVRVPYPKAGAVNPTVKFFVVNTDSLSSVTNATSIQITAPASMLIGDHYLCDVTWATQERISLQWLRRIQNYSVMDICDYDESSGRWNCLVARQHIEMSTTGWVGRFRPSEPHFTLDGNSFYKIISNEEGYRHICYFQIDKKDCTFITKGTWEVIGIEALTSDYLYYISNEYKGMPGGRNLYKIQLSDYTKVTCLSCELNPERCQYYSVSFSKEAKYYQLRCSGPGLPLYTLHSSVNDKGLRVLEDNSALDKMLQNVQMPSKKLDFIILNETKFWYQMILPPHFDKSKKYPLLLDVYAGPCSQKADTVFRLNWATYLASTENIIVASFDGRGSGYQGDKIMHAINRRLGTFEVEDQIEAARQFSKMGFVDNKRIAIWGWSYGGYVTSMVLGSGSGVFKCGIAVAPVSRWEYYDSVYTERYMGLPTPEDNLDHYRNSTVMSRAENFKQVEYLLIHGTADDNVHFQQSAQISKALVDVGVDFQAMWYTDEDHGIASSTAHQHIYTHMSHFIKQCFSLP
T3 sequence (P55786 whole entry): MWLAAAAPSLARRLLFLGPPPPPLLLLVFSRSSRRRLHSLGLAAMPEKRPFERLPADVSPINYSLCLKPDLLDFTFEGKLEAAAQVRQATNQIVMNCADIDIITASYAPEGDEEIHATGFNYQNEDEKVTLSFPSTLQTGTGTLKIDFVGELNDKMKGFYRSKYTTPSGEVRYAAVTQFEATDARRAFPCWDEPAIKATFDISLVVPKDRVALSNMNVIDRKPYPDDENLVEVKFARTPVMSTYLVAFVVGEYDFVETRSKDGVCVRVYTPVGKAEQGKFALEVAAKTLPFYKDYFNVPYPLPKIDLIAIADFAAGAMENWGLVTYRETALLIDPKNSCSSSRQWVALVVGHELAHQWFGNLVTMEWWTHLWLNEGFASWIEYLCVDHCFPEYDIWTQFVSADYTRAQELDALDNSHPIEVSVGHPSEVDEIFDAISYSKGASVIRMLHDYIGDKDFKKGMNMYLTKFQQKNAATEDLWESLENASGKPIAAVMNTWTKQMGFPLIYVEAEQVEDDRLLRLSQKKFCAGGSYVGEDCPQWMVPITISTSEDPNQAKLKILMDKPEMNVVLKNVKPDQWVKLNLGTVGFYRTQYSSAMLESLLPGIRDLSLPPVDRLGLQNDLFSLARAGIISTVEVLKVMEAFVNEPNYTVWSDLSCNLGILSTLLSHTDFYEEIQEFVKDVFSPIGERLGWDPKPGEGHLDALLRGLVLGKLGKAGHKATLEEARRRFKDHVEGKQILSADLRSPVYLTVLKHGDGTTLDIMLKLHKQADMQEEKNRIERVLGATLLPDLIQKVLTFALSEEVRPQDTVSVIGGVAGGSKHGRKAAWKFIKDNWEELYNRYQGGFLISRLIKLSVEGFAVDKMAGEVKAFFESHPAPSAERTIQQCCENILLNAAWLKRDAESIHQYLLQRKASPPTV

Compound | IC50 ([1]; read-out: meas. IC50 (DP8/9)) [µM] | IC50 (T lymphocytes (T cells)) [µM] | IC50 [2] [nM] | IC50 (NHEK cells) [µM] | IC50 [3] [nM] | IC50 [4] [nM] | meas. IC50 (DP8/9) [1] | meas. IC50 (APN) [2] | meas. IC50 (cAAP) [4] | meas. IC50 (DPIV) [3] | IC50 (SZ95 cells) [µM]
NC(CNS(=O)(=O)CCCNC(=O)C(O)C(N)Cc1ccccc1)Cc1cc(F)ccc1F (stereo not shown) [Compound C26.001] | 7.37 | 200 | 70 | ≥ 135 | 580 | 90 |  |  |  |  | 
CC(C)(C)OC(=O)NC(CNS(=O)(=O)CCCNC(=O)C(O)C(Cc1ccccc1)NC(=O)OC(C)(C)C)Cc1cc(F)ccc1F (stereo not shown) [Compound C26.002] |  | 200 |  | 18.1 | 6520 |  | no in- hibition | no in- hibition | no in- hibition |  | 
CC(=O)NC(Cc1ccccc1)C(O)C(=O)NCCCS(=O)(=O)NCC(N)Cc1cc(F)ccc1F (stereo not shown) [Compound C26.003] |  | 70 | 190 | ≥ 167 | 360 | 250 | no in- hibition |  |  |  | 
CC(=O)NC(Cc1ccccc1)C(O)C(=O)NCCCS(=O)(=O)NCC(Cc1cc(F)ccc1F)NC(=O)OC(C)(C)C (stereo not shown) [Compound C26.004] |  | 70 |  | ≥ 106 |  |  | no in- hibition | no in- hibition | no in- hibition | no in- hibition | 
NC(CNC(=O)CCCNC(=O)C(O)C(N)Cc1ccccc1)Cc1cc(F)ccc1F (stereo not shown) [Compound C26.005] |  | 27.3 | 90 | 28.9 |  | 130 |  |  |  | no in- hibition | 
CCOC(=O)C(O[Si](C)(C)C(C)(C)C)C(Cc1ccc(-c2cccnc2)cc1)NC(=O)OCc1ccccc1 (stereo not shown) [Compound C26.006] |  | 3.8 |  | 1.9 |  |  |  | no in- hibition | no in- hibition | no in- hibition | 7.9
NC(Cc1cc(F)ccc1F)CS(=O)(=O)NCCCCNC(=O)C(O)C(N)Cc1ccccc1 (stereo not shown) [Compound C26.007] |  | 3.5 |  |  |  |  |  | no in- hibition |  | no in- hibition | 7.3
NC(CNC(=O)CCCNC(=O)C(O)C(N)Cc1ccccc1)Cc1cc(F)ccc1F (stereo not shown) [Compound C26.008] |  |  | 10 |  | 900 |  |  |  |  |  | 
CC(C)(C)OC(=O)NC(CNC(=O)CCCNC(=O)C(O)C(Cc1ccccc1)NC(=O)OC(C)(C)C)Cc1cc(F)ccc1F (stereo not shown) [Compound C26.009] |  |  |  |  |  |  |  | no in- hibition |  | no in- hibition | 
CC(C)(C)OC(=O)NC(CNC(=O)c1cccc(NC(=O)C(O)C(N)Cc2ccc(-c3cccnc3)cc2)c1)Cc1cc(F)ccc1F (stereo not shown) [Compound C-125] |  | 12.9 | 94 | 4.4 |  | 5 |  |  |  | no in- hibition | 13.7
